Tested on: HCT116 cells
Experiment: Inhibition of cell proliferation of HCT116 cells (14C-thymidine incorporation, 96 hours)
Type: cell-based
Settings: Homo sapiens, HCT-116, 14C-thymidine incorporation after 96 hours
Method: The products according to the invention have been the subject of pharmacological trials which make it possible to determine their antiproliferative activity. It was determined by measuring the inhibition of cell proliferation of HCT116 cells. The cells are inoculated in a cell culture medium at a concentration of 10 000 cells per well, in 0.17 ml of medium, and 20 μl of test product, at various concentrations, and 10 μl of Thymidine [methyl-14C] (100 μCi/ml—specific activity 47.90 mCi/mmol; NEN Technologies reference NEC568 batch 3550-001) are added, and then the cells are incubated at 37° C. and 5% CO2.
Medium used for the culture of HCT116 cells: DMEM medium 2 mM L-glutamine, 200 IU/ml penicillin, 200 μg/ml streptomycin and 10% (V/V) fetal calf serum (Life Technologies).
After 96 hours, the incorporation of ^14C-thymidine is counted in a liquid scintillation counter 1450 Microbeta Wallac Trilux. The results R are expressed in cpm (counts per minute) and converted to percentage of growth inhibition GI % by first subtracting the mean of the number of cpm of the wells without cells B and then by dividing by the number of cpm of the wells of the untreated cells C comprising 20 μl of medium for dilution of the product containing 1% of ethanol (GI %=(R−B)×100/C %).
The IC50 values are calculated with the aid of the equation 205 of the XLFit software (IDBS company, UK) by nonlinear regression analysis using the Marquardt algorithm (Donald W. MARQUARDT, J. Soc. industry appl., vol. 11, No. 2, June, 1963).

| Structure (SMILES) | IC50 [nM] |
| --- | --- |
| C[C@@H]1CC[C@H]2[C@@H](C)[C@](OCC[S+]([O-])CCO[C@@]3(C(F)(F)F)O[C@@H]4O[C@]5(C)CC[C@H]6[C@H](C)CC[C@@H]([C@H]3C)[C@@]46OO5)(C(F)(F)F)O[C@@H]3O[C@@]4(C)CC[C@@H]1[C@]32OO4 [EX2] | 23 |
| C[C@@H]1CC[C@H]2[C@@H](C)[C@](OCCSCCO[C@@]3(C(F)(F)F)O[C@@H]4O[C@]5(C)CC[C@H]6[C@H](C)CC[C@@H]([C@H]3C)[C@@]46OO5)(C(F)(F)F)O[C@@H]3O[C@@]4(C)CC[C@@H]1[C@]32OO4 [EX1] | 47 |
| C[C@@H]1CC[C@H]2[C@@H](C)[C@](OCCS(=O)(=O)CCO[C@@]3(C(F)(F)F)O[C@@H]4O[C@]5(C)CC[C@H]6[C@H](C)CC[C@@H]([C@H]3C)[C@@]46OO5)(C(F)(F)F)O[C@@H]3O[C@@]4(C)CC[C@@H]1[C@]32OO4 [EX3, (3S,5aS,6R,8aS,9R,10R,12R,12aR,3′S,5′aS,6′R,8′aS,-9′R,10′R,12′R,12′aR)-10,10′-[sulfonylbis(2,1-ethanediyloxy)]bis[decahydro-3,6,9-trimethyl-10-tri-fluoromethyl)-3,12-epoxy-12H-pyrano[4,3-j]-1,2-benzodioxepine] | 21 |
| C[C@@H]1CC[C@H]2[C@@H](C)[C@](OCCN(C)CCO[C@@]3(C(F)(F)F)O[C@@H]4O[C@@]5(C)CC[C@H]6[C@H](C)CC[C@@H]([C@H]3C)[C@@]46OO5)(C(F)(F)F)O[C@@H]3O[C@@]4(C)CC[C@@H]1[C@]32OO4 [EX8, 2-[[(3R,5aS,6R,8aS,9R,10R,12R,12aR)-decahydro-3,6,9-trimethyl-10-(trifluoromethyl)-3,12-epoxy-12H-pyrano[4,3-j]-1,2-benzodioxepin-10-yl]oxy]-N-[2-[[(3R,5aS,6R,8aS,9R,10R,12R,12aR)-decahydro-3,6,9-trimethyl-10-(trifluoromethyl)-3,12-epoxy-12H-pyrano[4,3-j]-1,2-benzodioxepin-10-yl]oxy]ethyl]-N-methylethanamine] | 30 |

From patent US8314142B2, “Dimers of artemisinin derivatives, preparation thereof and therapeutic use thereof” (Sanofi, priority 2006, dated 2012)
